From the NIST ThermoML archive (doi:10.1016/j.fluid.2014.09.014)

Test: refractive index (other wavelength) (dimensionless); xn = mol fraction of the nth substance listed
Details: 101 kPa, Liquid, Standard Abbe refractometry

CC(C)OC(C)C [diisopropyl ether] + CO
Details	refractive index
313.15 K, Wavelength=644 nm, x2 = 0.9527	1.32574
313.15 K, Wavelength=644 nm, x2 = 0.9773	1.32248
313.15 K, Wavelength=644 nm, x2 = 0.989	1.3213
313.15 K, Wavelength=644 nm, x2 = 0.9964	1.32034
313.15 K, Wavelength=706.5 nm, x2 = 0	1.35401
313.15 K, Wavelength=706.5 nm, x2 = 0.0423	1.35395
313.15 K, Wavelength=706.5 nm, x2 = 0.0424	1.35398
313.15 K, Wavelength=706.5 nm, x2 = 0.082	1.35392
313.15 K, Wavelength=706.5 nm, x2 = 0.0822	1.35411
313.15 K, Wavelength=706.5 nm, x2 = 0.1171	1.35398
313.15 K, Wavelength=706.5 nm, x2 = 0.1271	1.35399
313.15 K, Wavelength=706.5 nm, x2 = 0.1827	1.35378
313.15 K, Wavelength=706.5 nm, x2 = 0.2162	1.35364
313.15 K, Wavelength=706.5 nm, x2 = 0.251	1.35322
313.15 K, Wavelength=706.5 nm, x2 = 0.3298	1.35329
313.15 K, Wavelength=706.5 nm, x2 = 0.3577	1.35251
313.15 K, Wavelength=706.5 nm, x2 = 0.4497	1.35124
313.15 K, Wavelength=706.5 nm, x2 = 0.4525	1.35165
313.15 K, Wavelength=706.5 nm, x2 = 0.522	1.34954
313.15 K, Wavelength=706.5 nm, x2 = 0.609	1.34648
313.15 K, Wavelength=706.5 nm, x2 = 0.6529	1.34501
313.15 K, Wavelength=706.5 nm, x2 = 0.7504	1.34121
313.15 K, Wavelength=706.5 nm, x2 = 0.804	1.33693
313.15 K, Wavelength=706.5 nm, x2 = 0.807	1.33702
313.15 K, Wavelength=706.5 nm, x2 = 0.8727	1.33354
313.15 K, Wavelength=706.5 nm, x2 = 0.9233	1.32582
313.15 K, Wavelength=706.5 nm, x2 = 0.9253	1.32745
313.15 K, Wavelength=706.5 nm, x2 = 0.9527	1.32454
313.15 K, Wavelength=706.5 nm, x2 = 0.9773	1.32131
313.15 K, Wavelength=706.5 nm, x2 = 0.989	1.32103
313.15 K, Wavelength=706.5 nm, x2 = 0.9964	1.31919
318.15 K, Wavelength=40.47 nm, x2 = 0	1.36447
318.15 K, Wavelength=40.47 nm, x2 = 0.0423	1.36444
318.15 K, Wavelength=40.47 nm, x2 = 0.0424	1.3644
318.15 K, Wavelength=40.47 nm, x2 = 0.082	1.36442
318.15 K, Wavelength=40.47 nm, x2 = 0.0822	1.36413
318.15 K, Wavelength=40.47 nm, x2 = 0.1171	1.36444
318.15 K, Wavelength=40.47 nm, x2 = 0.1271	1.36445
318.15 K, Wavelength=40.47 nm, x2 = 0.1827	1.36427
318.15 K, Wavelength=40.47 nm, x2 = 0.2162	1.36415
318.15 K, Wavelength=40.47 nm, x2 = 0.251	1.3636
318.15 K, Wavelength=40.47 nm, x2 = 0.3298	1.36408
318.15 K, Wavelength=40.47 nm, x2 = 0.3577	1.36296
318.15 K, Wavelength=40.47 nm, x2 = 0.4497	1.36174
318.15 K, Wavelength=40.47 nm, x2 = 0.4525	1.36248
318.15 K, Wavelength=40.47 nm, x2 = 0.522	1.35999
318.15 K, Wavelength=40.47 nm, x2 = 0.5543	1.35901
318.15 K, Wavelength=40.47 nm, x2 = 0.609	1.35666
318.15 K, Wavelength=40.47 nm, x2 = 0.6529	1.35514
318.15 K, Wavelength=40.47 nm, x2 = 0.7504	1.35095
318.15 K, Wavelength=40.47 nm, x2 = 0.804	1.34473
318.15 K, Wavelength=40.47 nm, x2 = 0.807	1.3465
318.15 K, Wavelength=40.47 nm, x2 = 0.8727	1.34338
318.15 K, Wavelength=40.47 nm, x2 = 0.9233	1.33515
318.15 K, Wavelength=40.47 nm, x2 = 0.9253	1.33682
318.15 K, Wavelength=40.47 nm, x2 = 0.9527	1.33369
318.15 K, Wavelength=40.47 nm, x2 = 0.9773	1.33062
318.15 K, Wavelength=40.47 nm, x2 = 0.989	1.32932
318.15 K, Wavelength=40.47 nm, x2 = 0.9964	1.32844
318.15 K, Wavelength=435.8 nm, x2 = 0	1.36157
318.15 K, Wavelength=435.8 nm, x2 = 0.0423	1.36155
318.15 K, Wavelength=435.8 nm, x2 = 0.0424	1.36152
318.15 K, Wavelength=435.8 nm, x2 = 0.082	1.36153
318.15 K, Wavelength=435.8 nm, x2 = 0.0822	1.36167
318.15 K, Wavelength=435.8 nm, x2 = 0.1171	1.36159
318.15 K, Wavelength=435.8 nm, x2 = 0.1271	1.36158
318.15 K, Wavelength=435.8 nm, x2 = 0.1827	1.3614
318.15 K, Wavelength=435.8 nm, x2 = 0.2162	1.36132
318.15 K, Wavelength=435.8 nm, x2 = 0.251	1.36074
318.15 K, Wavelength=435.8 nm, x2 = 0.3298	1.36122
318.15 K, Wavelength=435.8 nm, x2 = 0.3577	1.36012
318.15 K, Wavelength=435.8 nm, x2 = 0.4497	1.35893
318.15 K, Wavelength=435.8 nm, x2 = 0.4525	1.35967
318.15 K, Wavelength=435.8 nm, x2 = 0.522	1.3572
318.15 K, Wavelength=435.8 nm, x2 = 0.5543	1.35624
318.15 K, Wavelength=435.8 nm, x2 = 0.609	1.35398
318.15 K, Wavelength=435.8 nm, x2 = 0.6529	1.35244
318.15 K, Wavelength=435.8 nm, x2 = 0.7504	1.34832
318.15 K, Wavelength=435.8 nm, x2 = 0.804	1.34218
318.15 K, Wavelength=435.8 nm, x2 = 0.807	1.34393
318.15 K, Wavelength=435.8 nm, x2 = 0.8727	1.34082
318.15 K, Wavelength=435.8 nm, x2 = 0.9233	1.33279
318.15 K, Wavelength=435.8 nm, x2 = 0.9253	1.33442
318.15 K, Wavelength=435.8 nm, x2 = 0.9527	1.33136
318.15 K, Wavelength=435.8 nm, x2 = 0.9773	1.32834
318.15 K, Wavelength=435.8 nm, x2 = 0.989	1.32708
318.15 K, Wavelength=435.8 nm, x2 = 0.9964	1.32617
318.15 K, Wavelength=486.1 nm, x2 = 0	1.35832
318.15 K, Wavelength=486.1 nm, x2 = 0.0423	1.35829
318.15 K, Wavelength=486.1 nm, x2 = 0.0424	1.35828
318.15 K, Wavelength=486.1 nm, x2 = 0.082	1.35827
318.15 K, Wavelength=486.1 nm, x2 = 0.0822	1.35838
318.15 K, Wavelength=486.1 nm, x2 = 0.1171	1.35824
318.15 K, Wavelength=486.1 nm, x2 = 0.1271	1.35832
